The source of these data is publication PMC10928576, “Cpne7 deficiency induces cellular senescence and premature aging of dental pulp” (Aging Cell, 2023).

Data set [1] has as its system hDPCs.
Data set [2] has as its system hDPCs. The conditions noted are these: 30 min or 1 h after H2O2 100 μM, 500 μM or 1 mM.
For data set [3], the system named is hDPCs. In words: Comet assay. The conditions noted are these: 1 mM H2O2. It counts as cell-based, human. As to the method:
Human DPCs were combined with Comet Agarose (Abcam, ab238544) at 1/10 ratio (v/v), mixed by pipetting, and immediately transferred onto the top of the Comer Agarose Base Layer Slide (Abcam, ab238544). Set horizontally, the slides were incubated at 4°C in the dark for 15 min, and placed in a small basin/container containing pre‐chilled Lysis Buffer (Abcam, ab238544). They were immersed in the buffer for 1 h at 4°C in the dark. After 1 h, aspiration of the Lysis Buffer from the container was done and replaced with a pre‐chilled Alkaline Solution (Abcam, ab238544), followed by electrophoresis chamber filled with the Alkaline Electrophoresis Solution. Voltage was applied to the chamber for 30 min at 1 volt/cm. The slides were then rinsed with pre‐chilled DI H2O and replaced with cold 70% Ethanol for 5 min. The slide was removed from the 70% Ethanol and allowed to air dry. Once the slide was completely dry, staining with Vista Green DNA Dye (Abcam, ab238544) was done at room temperature for 15 min. Cells were visualized using confocal microscopy (LSM980, Zeiss, Germany) (n = 3, each group).

Data set [4] concerns hDPCs. Briefly: γ-H2AX immunofluorescence in hDPCs. It counts as cell-based, human. The conditions noted are these: 1 mM H2O2, vs control. As to the method: Human DPCs and tissue sections were treated with phosphate‐buffered saline (PBS) and 0.5% Triton X‐100 for permeabilization. After washing and blocking, cells and tissue samples were incubated overnight at 4°C with γ‐H2AX (1:100, Cell Signaling Technology, #9718) and CPNE7 (1:100) in blocking buffer (PBS and 2% bovine serum albumin). Subsequently, FITC‐conjugated anti‐rabbit secondary antibody (1:500) or Cy3‐conjugated anti‐rabbit (1:500) was applied. Cells were visualized using confocal microscopy (LSM980, Zeiss, Germany). The chromosomal DNA in the nucleus was stained with 4′,6‐diamidino‐2‐phenylindole (DAPI). The microtubules were detected using α‐TUBULIN antibodies (1:1000; Santa Cruz), and F‐ACTIN was stained with Alexa Fluor 488 or rhodamine‐conjugated phalloidin (Invitrogen). Flag‐tagged rCPNE7 was detected using Flag‐antibodies (1:500; Sigma–Aldrich), and TAU was detected by TAU antibodies (1:100; CUSABIO). Immunofluorescence staining of TAU, F‐ACTIN, and α‐TUBULIN was analyzed using the IMARIS cell imaging software (Bitplane) (n = 3, each group).

Data set [5] deals with hDPCs. In words: Senescence β-galactosidase (SA-β gal) staining of H2O2-treated hDPCs. It counts as cell-based, human. To be noted: hDPCs, 1 mM H2O2, 30 min. As to the method: The hDPCs were obtained from the Seoul National University Dental Hospital, and the experimental protocol was accepted by the Institutional Review Board of the Seoul National University (S‐D20140007). Informed consent was obtained from patients. Human DPCs were isolated and used in an in vitro experiment as described previously (Jung et al., [2011]). Human DPCs were cultured in minimum essential medium α (Gibco BRL, 12571063) supplemented with 10% heat‐inactivated fetal bovine serum (FBS; Gibco BRL, 16000044) and antibiotic‐antimycotic (Gibco BRL, 15240062) at 37°C in an atmosphere with 5% CO2. The cells were then treated with recombinant CPNE7 protein (rCPNE7, 100 ng/mL; Origene, TP306428) or CPNE7‐derived peptide (CPNE7‐DP, 10 μg/mL). After oxidative stress‐induced DNA damage using Hydrogen Peroxide Solution (H2O2; Merck, H1009) rCPNE7 was treated after replacement with a new culture medium (α‐MEM).
Human DPCs were fixated with Fixative Solution (Cell Signaling Technology, #9860) at room temperature for 15 min. Rinsed twice with PBS, the cells were then stained with β‐Galactosidase Staining Solution (Cell Signaling Technology, #9860) at 37°C overnight in a dry incubator (no CO2). Cells were observed using light microscopy (Primovert, Zeiss, Germany) (n = 3, each group).

Data set [6] deals with hDPCs. Briefly: γ-H2AX / P21 western blot in H2O2-treated hDPCs. It counts as cell-based, human. As to the method:
Cellular proteins (30 μg) were separated by 10% or 15% sodium dodecyl sulfate‐polyacrylamide gel electrophoresis (SDS‐PAGE) and transferred to polyvinylidene fluoride (PVDF) membranes. The PVDF membranes were blocked for 1 h with 5% nonfat dry milk in Tris‐buffered saline containing 0.1% Tween 20 (TBS‐T) and incubated overnight at 4°C with the primary antibody diluted in TBS‐T (1:5000). After washing, membranes were incubated for 1 h with the appropriate secondary antibodies. Labeled protein bands were detected under an enhanced chemiluminescence system (Amersham Biosciences/GE Healthcare). All reactions were performed in triplicate. Semi‐quantitative analyses were performed using Image J software (National Institute of Health, MD, USA) (n = 3, each group).

`OO` [H2O2, hydrogen peroxide, reference compound]: in the data set with hDPCs [1] (1 mM and 2 mM H2O2, after 48 h), the “cytotoxicity of oxidative stress” value is on record as “severe cytotoxicity”. Further, the “cell death / survival rate (WST-8)” value with hDPCs [1] (H2O2 50 μM to 2 mM for 24 h) is recorded as “cell death occurred in a concentration‐dependent manner except for 50 μM”. Moreover, the “endogenous mRNA expression level of Cpne7” value in the data set on hDPCs [2] was “started to increase”. The “DNA fragmentation (comet assay)” value in the data set with hDPCs [3] was “fragmented DNA visualized as a cell tail”. Further, the “expression of γ-H2AX (immunofluorescence)” value in the data set with hDPCs [4] is on record as “specifically detected in cellular nuclei”. Further, in the data set with hDPCs [5], the “SA-β gal positive signals (induction of senescence)” value is “began to deposit”. The “expressions of γ-H2AX and P21 (DNA damage and cell cycle arrest)” value in the data set with hDPCs [6] (500 μM H2O2) was “upregulated”. In the data set on hDPCs [6] (1 mM and 2 mM H2O2), the “protein expression level of γ-H2AX (western blot)” value is on record as “clearly detected”.
